The values that follow are results of earlier work, collected in patent US20050129719A1, “Concentrated emulsion formulation for silatecan” (priority 2003, published 2005).

For the compound `CC[C@@]1(O)C(=O)OCc2c1cc1n(c2=O)Cc2c-1nc1ccc(O)cc1c2[Si](C)(C)C(C)(C)C` [Silatecan, 7-t-butyldimethylsilyl-10-hydroxycamptothecin], the water-solubility result is recorded as “extremely low water-solubility”.
